Assay results as given in ChEMBL document CHEMBL3853350 (ACS Med Chem Lett, 2016).

Experiments:
[1] = biological target: Cytochrome P450 2D6 (Homo sapiens, UniProt P10635); assay: Inhibition of CYP2D6 in human liver microsomes after 5 mins in presence of NADPH by LC-MS/MS analysis; type: ADME
[2] = Oral bioavailability in CD-1 mouse plasma at 5 mg/kg measured 24 hrs post dose by LC/MS/MS analysis; type: ADME, organism-based
[3] = Oral bioavailability in cynomolgus monkey plasma at […] measured 24 hrs post dose by LC/MS/MS analysis; type: ADME, organism-based, Macaca fascicularis
[4] = Fraction unbound in rat plasma at 1 uM after 5 hrs by rapid equilibrium dialysis based LC-MS/MS analysis; type: ADME, cell-free
[5] = Half life in Sprague-Dawley rat plasma at 1 mg/kg, iv by LC/MS/MS analysis; type: ADME, organism-based
[6] = Volume of distribution at steady state in Sprague-Dawley rat plasma at 1 mg/kg, iv measured 24 hrs post dose by LC/MS/MS analysis; type: ADME, organism-based; details: read-out: Vdss
[7] = AUC (0 to infinity) in cynomolgus monkey plasma at […] administered via oral gavage measured 24 hrs post dose by LC/MS/MS analysis; type: ADME, organism-based, Macaca fascicularis; parameters: dose 2.5 mg/kg, route oral, time infinity
[8] = AUC (0 to infinity) in CD-1 mouse plasma at 5 mg/kg administered via oral gavage measured 24 hrs post dose by LC/MS/MS analysis; type: ADME, organism-based; parameters: dose 5 mg/kg, time infinity, route oral
[9] = Clearance in cynomolgus monkey plasma at 0.5 mg/kg, iv measured 24 hrs post dose by LC/MS/MS analysis; type: ADME, organism-based, Macaca fascicularis
[10] = Clearance in Sprague-Dawley rat plasma at 1 mg/kg, iv measured 24 hrs post dose by LC/MS/MS analysis; type: ADME, organism-based
[11] = Half life in human hepatocytes at 1 uM by LC/MS analysis; type: ADME, cell-based, Hepatocyte
[12] = biological target: Cytochrome P450 3A4 (Homo sapiens, UniProt P08684); assay: Inhibition of CYP3A4 in human liver microsomes after 5 mins in presence of NADPH by LC-MS/MS analysis; type: ADME
Sequence of Cytochrome P450 3A4 (P08684 whole entry): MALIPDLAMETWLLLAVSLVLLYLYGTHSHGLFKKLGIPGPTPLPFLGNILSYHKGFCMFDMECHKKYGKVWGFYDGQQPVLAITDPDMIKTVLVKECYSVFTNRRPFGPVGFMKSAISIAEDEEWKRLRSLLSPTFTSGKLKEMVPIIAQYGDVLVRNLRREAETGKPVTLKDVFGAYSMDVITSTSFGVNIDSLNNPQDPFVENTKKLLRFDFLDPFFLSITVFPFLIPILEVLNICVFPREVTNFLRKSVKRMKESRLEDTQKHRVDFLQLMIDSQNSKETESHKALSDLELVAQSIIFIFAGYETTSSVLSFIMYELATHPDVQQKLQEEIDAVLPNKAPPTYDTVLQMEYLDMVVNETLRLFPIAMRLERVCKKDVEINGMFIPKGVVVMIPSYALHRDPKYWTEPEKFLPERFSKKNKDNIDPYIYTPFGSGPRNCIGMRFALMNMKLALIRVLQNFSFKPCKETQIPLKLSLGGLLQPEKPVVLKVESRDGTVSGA

[13] = biological target: Cytochrome P450 2C9 (Homo sapiens, UniProt P11712); assay: Inhibition of CYP2C9 in human liver microsomes after 5 mins in presence of NADPH by LC-MS/MS analysis; type: ADME
Sequence of Cytochrome P450 2C9 (P11712 whole entry): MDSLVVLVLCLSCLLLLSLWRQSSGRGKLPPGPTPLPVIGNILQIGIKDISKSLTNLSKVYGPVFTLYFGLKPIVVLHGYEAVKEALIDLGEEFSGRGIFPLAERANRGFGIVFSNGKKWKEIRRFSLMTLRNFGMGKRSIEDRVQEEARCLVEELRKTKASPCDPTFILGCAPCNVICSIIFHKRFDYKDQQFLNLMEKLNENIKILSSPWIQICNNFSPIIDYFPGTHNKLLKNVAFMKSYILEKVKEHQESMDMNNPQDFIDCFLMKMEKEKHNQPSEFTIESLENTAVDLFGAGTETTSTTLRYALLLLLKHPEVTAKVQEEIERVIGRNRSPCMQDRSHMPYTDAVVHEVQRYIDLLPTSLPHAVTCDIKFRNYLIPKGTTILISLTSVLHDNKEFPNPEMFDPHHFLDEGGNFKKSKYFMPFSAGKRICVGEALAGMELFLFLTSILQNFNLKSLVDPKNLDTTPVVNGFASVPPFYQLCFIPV

[14] = Apparent permeability from apical to basolateral side in human Caco2 cells at 10 uM by lucifer yellow flux assay; type: ADME, cell-based; details: Caco-2

Sequence of Cytochrome P450 2D6 (P10635 whole entry): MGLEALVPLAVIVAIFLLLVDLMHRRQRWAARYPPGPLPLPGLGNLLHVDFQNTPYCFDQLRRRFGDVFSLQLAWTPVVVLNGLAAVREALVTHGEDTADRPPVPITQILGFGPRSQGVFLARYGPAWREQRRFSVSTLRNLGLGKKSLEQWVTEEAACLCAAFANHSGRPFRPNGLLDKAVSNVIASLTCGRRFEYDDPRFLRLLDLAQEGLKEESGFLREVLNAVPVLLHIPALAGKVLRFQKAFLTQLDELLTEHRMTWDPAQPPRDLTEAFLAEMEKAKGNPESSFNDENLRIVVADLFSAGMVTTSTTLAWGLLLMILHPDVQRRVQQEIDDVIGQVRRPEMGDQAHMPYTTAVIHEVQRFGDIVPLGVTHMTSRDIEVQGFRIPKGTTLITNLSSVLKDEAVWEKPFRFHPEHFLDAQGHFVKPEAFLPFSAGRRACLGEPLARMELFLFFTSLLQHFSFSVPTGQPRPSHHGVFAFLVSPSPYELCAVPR

For `C[C@H](NC(=O)c1c(N)nn2cccnc12)c1cc2cccc(C#Cc3cnn(C)c3)c2c(=O)n1-c1ccccc1` [EGANELISIB], the IC50 [1] was > 20 µM, the bioavailability [2] was 88% and the bioavailability at 24 h [3] was 31%. For the same compound, the fraction unbound at 5 h, 1 µM [4] was 0.028, the half-life [5] was 4.4 h and the Vd [6] was 1.2 L/kg. For the same compound, the AUC(0-inf) at 24 h [7] was 4030 ng·h/mL, the AUC(0-inf) [8] was 20600 ng·h/mL and the clearance [9] was 4.3 mL/min/kg. For the same compound, the clearance [10] was 4.4 mL/min/kg, the half-life at 1 µM [11] was > 6 h and the IC50 [12] was > 20 µM. The IC50 [13] was > 20 µM and the Papp A→B at 10 µM [14] was 13 ×10⁻⁶ cm/s.
